According to ChEMBL document CHEMBL4152318, “Halogenated quinolines bearing polar functionality at the 2-position: Identification of new antibacterial agents with enhanced activity against Staphylococcus epidermidis” (Eur J Med Chem, 2018):
Converted amounts (≈) assume the structure as drawn.

Tests used:
Enterococcus faecium [1] = test: Antibacterial activity against vancomycin-resistant Enterococcus faecium ATCC 700221 after 16 to 18 hrs by broth microdilution method; assay type: functional
[2] = tested on: Staphylococcus epidermidis; test: Antibacterial activity against methicillin-resistant Staphylococcus epidermidis ATCC 35984 after 16 to 18 hrs by broth microdilution method; assay type: functional
[3] = Selectivity index, ratio of IC50 for cytotoxicity against human HeLa cells to MIC for antibacterial activity against methicillin-resistant Staphylococcus epidermidis ATCC 35984; assay type: toxicity, cell-based; conditions: read-out: Selectivity Index
Staphylococcus aureus [4] = test: Antibacterial activity against methicillin-resistant Staphylococcus aureus BAA-1707 after 16 to 18 hrs by broth microdilution method; assay type: functional
HeLa = test: Cytotoxicity against human HeLa cells after 24 hrs by LDH release assay; assay type: cell-based
[5] = Hemolytic activity against human RBC at 200 uM after 1 hr relative to control; assay type: ADME, cell-based, Erythrocyte; conditions: red blood cells (erythrocytes), read-out: Activity
[6] = tested on: Staphylococcus epidermidis; test: Antibiofilm activity against methicillin-resistant Staphylococcus epidermidis ATCC 35984 after 24 hrs by CBD assay; assay type: functional
Staphylococcus aureus [7] = test: Antibiofilm activity against methicillin-resistant Staphylococcus aureus BAA-1707 after 24 hrs by CBD assay; assay type: functional
[8] = tested on: Staphylococcus epidermidis; test: Bactericidal activity against methicillin-resistant Staphylococcus epidermidis ATCC 35984 planktonic cells after 24 hrs by CBD assay; assay type: functional; conditions: ATCC 35984, 24 h
Staphylococcus aureus [9] = test: Bactericidal activity against methicillin-resistant Staphylococcus aureus BAA-1707 planktonic cells after 24 hrs by CBD assay; assay type: functional; conditions: BAA-1707, 24 h
Enterococcus faecium [10] = test: Antibiofilm activity against vancomycin-resistant Enterococcus faecium ATCC 700221 after 24 hrs by CBD assay; assay type: functional
Enterococcus faecium [11] = test: Bactericidal activity against vancomycin-resistant Enterococcus faecium ATCC 700221 planktonic cells after 24 hrs by CBD assay; assay type: functional; conditions: ATCC 700221, 24 h
[12] = tested on: Staphylococcus epidermidis; test: Potency index, ratio of TPEN MIC to compound MIC for antibacterial activity against methicillin-resistant Staphylococcus epidermidis ATCC 35984; assay type: functional
[13] = Selectivity ratio of MIC for vancomycin-resistant Enterococcus faecium ATCC 700221 to MIC for methicillin-resistant Staphylococcus epidermidis ATCC 35984; assay type: functional
Staphylococcus aureus [14] = test: Potency index, ratio of TPEN MIC to compound MIC for antibacterial activity against methicillin-resistant Staphylococcus aureus BAA-1707; assay type: functional
[15] = Selectivity ratio of MIC for methicillin-resistant Staphylococcus aureus BAA-1707 to MIC for methicillin-resistant Staphylococcus epidermidis ATCC 35984; assay type: functional

Compound | MIC (Enterococcus faecium [1]) [µM] | MIC [2] [µM] | selectivity ratio [3] | MIC (Staphylococcus aureus [4]) [µM] | IC50 (HeLa) [µM] | hemolysis at 1 h, 200 µM [5] [%] | MBEC [6] [µM] | MBEC (Staphylococcus aureus [7]) [µM] | MBC [8] [µM] | MBC (Staphylococcus aureus [9]) [µM] | MBEC (Enterococcus faecium [10]) [µM] | MBC (Enterococcus faecium [11]) [µM] | Ratio [12] | Selectivity ratio [13] | Ratio (Staphylococcus aureus [14]) | Selectivity ratio [15]
Oc1c(Br)cc(Br)c2ccc(CNc3ccccc3)nc12 | 0.78 (≈ 0.318 µg/mL) | 0.15 (≈ 0.0612 µg/mL) | 667 | 0.39 (≈ 0.159 µg/mL) | 100 |  |  |  |  |  |  |  |  |  |  | 
CCCNCc1ccc2c(Br)cc(Br)c(O)c2n1 | 3.13 (≈ 1.17 µg/mL) |  |  | 2.35 (≈ 0.879 µg/mL) | > 100 |  |  |  |  |  |  |  |  |  |  | 
c1ccc(CN(CCN(Cc2ccccn2)Cc2ccccn2)Cc2ccccn2)nc1 |  | 12.5 (≈ 5.31 µg/mL) |  | 46.9 (≈ 19.9 µg/mL) |  | ≤ 1 | >2000 | >2000 | 250 (≈ 106 µg/mL) | 375 (≈ 159 µg/mL) |  |  |  |  |  | 
CCCCCCCCCC(=O)N[C@@H](Cc1c[nH]c2ccccc12)C(=O)N[C@@H](CC(N)=O)C(=O)N[C@@H](CC(=O)O)C(=O)N[C@@H]1C(=O)NCC(=O)N[C@@H](CCCN)C(=O)N[C@@H](CC(=O)O)C(=O)N[C@H](C)C(=O)N[C@@H](CC(=O)O)C(=O)NCC(=O)N[C@H](CO)C(=O)N[C@@H]([C@H](C)CC(=O)O)C(=O)N[C@@H](CC(=O)c2ccccc2N)C(=O)O[C@@H]1C [DAPTOMYCIN] | 3.13 (≈ 5.07 µg/mL) | 12.5 (≈ 20.3 µg/mL) |  | 3.13 (≈ 5.07 µg/mL) |  |  |  |  |  |  |  |  |  |  |  | 
CC(=O)NC[C@H]1CN(c2ccc(N3CCOCC3)c(F)c2)C(=O)O1 [LINEZOLID] | 3.13 (≈ 1.06 µg/mL) | 3.13 (≈ 1.06 µg/mL) |  | 12.5 (≈ 4.22 µg/mL) |  |  |  |  |  |  |  |  |  |  |  | 
CC(C)(C)OC(=O)N1CCN(Cc2ccc3c(Br)cc(Br)c(O)c3n2)CC1 | 0.59 (≈ 0.296 µg/mL) | 0.3 (≈ 0.15 µg/mL) | > 333 | 0.78 (≈ 0.391 µg/mL) | > 100 | 2.8 | 6.25 | 18.8 | 37.5 (≈ 18.8 µg/mL) | 18.8 (≈ 9.42 µg/mL) | 1.56 | 4.69 (≈ 2.35 µg/mL) |  |  |  | 
Oc1c(Br)cc(Br)c2ccc(CN3CCNCC3)nc12 | 50 (≈ 20.1 µg/mL) | 12.5 (≈ 5.01 µg/mL) |  | 25 (≈ 10 µg/mL) |  |  |  |  |  |  |  |  |  |  |  | 
CC(C)(C)OC(=O)NCCOCCOCCNCc1ccc2c(Br)cc(Br)c(O)c2n1 | 6.25 (≈ 3.52 µg/mL) | 3.13 (≈ 1.76 µg/mL) |  | 12.5 (≈ 7.04 µg/mL) |  |  |  |  |  |  |  |  |  |  |  | 
COCCOCCOCCOCc1ccc2c(Br)cc(Br)c(O)c2n1 |  | 2.35 (≈ 1.13 µg/mL) |  | 2.35 (≈ 1.13 µg/mL) | 100 |  |  |  |  |  |  |  |  |  |  | 
OCc1ccc2c(Br)cc(Br)c(O)c2n1 | 25 (≈ 8.32 µg/mL) | 37.5 (≈ 12.5 µg/mL) | > 2.7 | 100 (≈ 33.3 µg/mL) | > 100 |  |  |  |  |  |  |  |  |  |  | 
CN[C@H](CC(C)C)C(=O)N[C@H]1C(=O)N[C@@H](CC(N)=O)C(=O)N[C@H]2C(=O)N[C@H]3C(=O)N[C@H](C(=O)N[C@H](C(=O)O)c4cc(O)cc(O)c4-c4cc3ccc4O)[C@H](O)c3ccc(c(Cl)c3)Oc3cc2cc(c3O[C@@H]2O[C@H](CO)[C@@H](O)[C@H](O)[C@H]2O[C@H]2C[C@](C)(N)[C@H](O)[C@H](C)O2)Oc2ccc(cc2Cl)[C@H]1O [VANCOMYCIN] | > 100 |  |  |  |  | ≤ 1 | >2000 | >2000 | 3 (≈ 4.35 µg/mL) | 3.9 (≈ 5.65 µg/mL) | 150 | > 200 |  |  |  | 
Cc1ccc2c(Br)cc(Br)c(O)c2n1 [BROQUINALDOL] | 3.13 (≈ 0.992 µg/mL) | 1.17 (≈ 0.371 µg/mL) |  |  | > 100 |  |  |  |  |  |  |  |  |  |  | 
OCc1cn(Cc2ccc3c(Br)cc(Br)c(O)c3n2)nn1 | > 100 | > 100 |  | > 100 |  |  |  |  |  |  |  |  |  |  |  | 
COCCOCCOCc1ccc2c(Br)cc(Br)c(O)c2n1 | 3.13 (≈ 1.36 µg/mL) | 0.78 (≈ 0.339 µg/mL) | > 128 | 2.35 (≈ 1.02 µg/mL) | > 100 | 4.1 | 75 | 200 | 25 (≈ 10.9 µg/mL) | 50 (≈ 21.8 µg/mL) | 2.35 | 6.25 (≈ 2.72 µg/mL) | 16 - 42 | > 2 | 16 - 42 | > 2
C[C@H](NC(=O)OC(C)(C)C)C(=O)N1CCN(Cc2ccc3c(Br)cc(Br)c(O)c3n2)CC1 | 6.25 (≈ 3.58 µg/mL) | 3.13 (≈ 1.79 µg/mL) |  | 3.13 (≈ 1.79 µg/mL) |  |  |  |  |  |  |  |  |  |  |  | 
Oc1c(Br)cc(Br)c2ccc(CN3CCOCC3)nc12 | 3.13 (≈ 1.26 µg/mL) | 0.59 (≈ 0.237 µg/mL) | > 169 | 1.56 (≈ 0.627 µg/mL) | > 100 | 2.6 | 2.35 | >200 | 4.69 (≈ 1.89 µg/mL) | 25 (≈ 10.1 µg/mL) | 1.17 | 1.56 (≈ 0.627 µg/mL) | 16 - 42 | > 2 | 16 - 42 | > 2
C#CCNCc1ccc2c(Br)cc(Br)c(O)c2n1 | 1.56 (≈ 0.577 µg/mL) | 0.3 (≈ 0.111 µg/mL) | > 83 | 3.13 (≈ 1.16 µg/mL) | > 25 |  |  |  |  |  |  |  | 16 - 42 | > 2 | 16 - 42 | > 2
CCCc1ccc2c(Br)cc(Br)c(O)c2n1 | 0.78 (≈ 0.269 µg/mL) | 0.59 (≈ 0.204 µg/mL) | > 85 | 0.39 (≈ 0.135 µg/mL) | > 50 |  |  |  |  |  |  |  |  |  |  | 
NCCOCCOCCNCc1ccc2c(Br)cc(Br)c(O)c2n1 | 50 (≈ 23.2 µg/mL) | 25 (≈ 11.6 µg/mL) |  | 37.5 (≈ 17.4 µg/mL) |  |  |  |  |  |  |  |  |  |  |  | 
CC(C)(C)OC(=O)NCC(=O)N1CCN(Cc2ccc3c(Br)cc(Br)c(O)c3n2)CC1 | 12.5 (≈ 6.98 µg/mL) | 9.38 (≈ 5.24 µg/mL) |  | 25 (≈ 14 µg/mL) |  |  |  |  |  |  |  |  |  |  |  | 
COCCOCc1ccc2c(Br)cc(Br)c(O)c2n1 |  | 1.56 (≈ 0.61 µg/mL) |  |  | > 100 |  |  |  |  |  |  |  |  |  |  | 
CCCCOCc1ccc2c(Br)cc(Br)c(O)c2n1 | 12.5 (≈ 4.86 µg/mL) | 0.3 (≈ 0.117 µg/mL) | > 167 | 2.35 (≈ 0.914 µg/mL) | > 50 | 2.8 | 75 |  | 37.5 (≈ 14.6 µg/mL) |  |  |  | 16 - 42 | > 2 | 16 - 42 | > 2
